For test [1], the system named is SK-N-AS neuroblatoma cells. The test can be described thus: SK-N-AS neuroblastoma xenograft tumor growth in mice (03 IGFR-09, 19D12 vs. Cytoxan). Type of test: in vivo, Athymic nude mice. The following applies: 100 mpk Cytoxan.
Experimental: (§1) Athymic nude mice were inoculated with tumor cells in the right flank, subcutaneously, along with Matrigel (1:1 cells:gel). In these experiments, 5×10^6 cells/mouse in a 1:1 mix with regular matrigel were inoculated subcutaneously. Tumor size was measured with calipers and the data was entered into the labcat program. Mice were grouped with average size of 100 mm^3. Tumor size and body weight were measured twice weekly.
(§2) In these experiments, mice were dosed twice per week, intraperitoneally (i.p.) with antibody 19D12 and chemotherapeutic agents at the indicated frequency. Tumor size and mouse body weight was measured twice weekly after treatment.
Test [2] has as its system SJCRH30 rhabdomyosarcoma cells. The test can be described thus: SJCRH30 rhabdomyosarcoma xenograft tumor growth in mice (05 IGFR-01, 19D12 and Cytoxan). Type of test: in vivo, Athymic nude mice. The following applies: 100 mpk Cytoxan.
Experimental: as §1, §2
Test [3] has as its system SJSA-1 osteosarcoma cells. The test can be described thus: SJSA-1 osteosarcoma xenograft model (05-IGFR-12), dosing from day 18 post inoculation. Type of test: in vivo, female nude mouse (strain NU/NU). The following applies: 100 mpk Cytoxan. The procedure:
About 7 million SJSA-1 osteosarcoma cells were inoculated subcutaneously to the flank of each female nude mouse (strain NU/NU from Charles River, age ˜6 wks-old, average weight ˜20 gram). For the experiment set forth in Table 8, dosing was initiated on day 18 post inoculation, when the xenograft tumor reached an average size of about 100 mm^3. Anti-IGF1R antibody (19D12 Light chain F/Heavy chain A (as set forth above)) was given ip twice a week at the dose of either 0.02 mg, 0.1 and 0.5 mg per mouse, while cytotoxic Cytoxan (cyclophosphamide) was given ip twice per week at the dose of 100 mpk for a total of 3 injection during the course of the study. Xenograft tumor size was measured twice per week with a caliper and captured electronically by the LabCat program.

For test [4], the system named is SJSA-1 osteosarcoma cells. The test can be described thus: SJSA-1 osteosarcoma xenograft model (05-IGFR-21), dosing from 15 days after inoculation. Type of test: in vivo, female nude mouse (strain NU/NU). On the procedure: Xenograft tumor size was measured twice per week with a caliper and captured electronically by the LabCat program. […] For the experiments set forth in Table 9, dosing was initiated 15 days after inoculation. […] Xenograft tumor size was measured twice per week with a caliper and captured electronically by the LabCat program.

Test [5] deals with SK-N-MC neuroblastoma cells. The test can be described thus: SK-N-MC neuroblastoma xenograft tumor growth in mice (04 IGFR-13, 19D12 vs. Cisplatin). Type of test: in vivo, Athymic nude mice. The note with it: Cisplatin 2 mpk.
Test [6] has as its system Hs700T malignant pancreatic cells. The experiment in a line: Hs700T pancreatic xenograft tumor growth in mice (04 IGFR-16, 19D12 and Gemzar combination).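 Also: subcutaneous flank xenografts in athymic nude mice, treated once tumors averaged 100 mm^3, antibody given intraperitoneally twice weekly, tumor size measured by calipers.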
Experimental: as §1, §2

Take `O=P1(N(CCCl)CCCl)NCCCO1` (stereo not drawn) [Cytoxan, cyclophosphamide, reference compound]: the “Tumor Average Size” value is given as 257 mm^3 in test [1] (Day 4); 227 mm^3 in test [1] (Day 7); 111 mm^3 in test [1] (Day 11); 122 mm^3 in test [1] (Day -1); 75 mm^3 in test [2] (Day 0); 125 mm^3 in test [2] (Day 4). Besides, the “Tumor Average Size” value amounted to 232 mm^3 in test [2] (Day 7), 347 mm^3 in test [2] (Day 11), 591 mm^3 in test [2] (Day 14) and 733 mm^3 in test [2] (Day 18). Further, the “Mean Tumor size” value stood at 96 mm3 in test [3] (Day 0); 111 mm3 in test [3] (Day 3); 102 mm3 in test [3] (Day 7); 59 mm3 in test [3] (Day 10); 140 mm3 in test [3] (Day 14); 172 mm3 in test [3] (Day 17). The “Mean Tumor size” value in test [3] (Day 21) amounted to 302 mm3; in test [3] (Day 24) it was 586 mm3; in test [3] (Day 28), 972 mm3; in test [4] (50 mpk Cytoxan, Day 0) it was 145 mm3; in test [4] (50 mpk Cytoxan, Day 4) it was 198 mm3; in test [4] (50 mpk Cytoxan, Day 7) it was 287 mm3. Also, the “Mean Tumor size” value is listed as 614 mm3 in test [4] (50 mpk Cytoxan, Day 11); 908 mm3 in test [4] (50 mpk Cytoxan, Day 14); 149 mm3 in test [4] (100 mpk Cytoxan, Day 0); 132 mm3 in test [4] (100 mpk Cytoxan, Day 4); 193 mm3 in test [4] (100 mpk Cytoxan, Day 7); 218 mm3 in test [4] (100 mpk Cytoxan, Day 11). The “Mean Tumor size” value in test [4] (100 mpk Cytoxan, Day 14) is listed as 285 mm3.

As to `N.N.[Cl][Pt][Cl]` [Cisplatin, cisplatin, reference compound], the “Tumor Average Size” value came out at 99 mm^3 in test [5] (Day 0); 131 mm^3 in test [5] (Day 2); 174 mm^3 in test [5] (Day 6); 212 mm^3 in test [5] (Day 9); 264 mm^3 in test [5] (Day 13); 288 mm^3 in test [5] (Day 16). Moreover, the “Tumor Average Size” value in test [5] (Day 20) worked out at 299 mm^3; in test [5] (Day 23), 352 mm^3; in test [5] (Day 24) it was 352 mm^3; in test [6] (5 mpk Cisplatin, Day 0) it was 79 mm^3; in test [6] (5 mpk Cisplatin, Day 4), 87 mm^3; in test [6] (5 mpk Cisplatin, Day 7), 96 mm^3. Also, the “Tumor Average Size” value turned out to be 99 mm^3 in test [6] (5 mpk Cisplatin, Day 11); 100 mm^3 in test [6] (5 mpk Cisplatin, Day 14); 107 mm^3 in test [6] (5 mpk Cisplatin, Day 18); 113 mm^3 in test [6] (5 mpk Cisplatin, Day 21); 155 mm^3 in test [6] (5 mpk Cisplatin, Day 26); 175 mm^3 in test [6] (5 mpk Cisplatin, Day 29). The “Tumor Average Size” value is recorded as 185 mm^3 in test [6] (5 mpk Cisplatin, Day 33) and 173 mm^3 in test [6] (5 mpk Cisplatin, Day 36).

Consider `Cl.Nc1ccn(C2OC(CO)C(O)C2(F)F)c(=O)n1` (stereo not drawn) [Gemzar, gemcitabine, reference compound], for which the “Tumor Average Size” value is 77 mm^3 in test [6] (100 mpk Gemzar, Day 0); 86 mm^3 in test [6] (100 mpk Gemzar, Day 4); 98 mm^3 in test [6] (100 mpk Gemzar, Day 7); 105 mm^3 in test [6] (100 mpk Gemzar, Day 11); 119 mm^3 in test [6] (100 mpk Gemzar, Day 14); 148 mm^3 in test [6] (100 mpk Gemzar, Day 18). Besides, the “Tumor Average Size” value in test [6] (100 mpk Gemzar, Day 21) amounted to 166 mm^3; in test [6] (100 mpk Gemzar, Day 26) it was 249 mm^3; in test [6] (100 mpk Gemzar, Day 29) it was 284 mm^3; in test [6] (100 mpk Gemzar, Day 33) it was 324 mm^3; in test [6] (100 mpk Gemzar, Day 36), 368 mm^3.

Source of the values: patent publication US20150093398A1, “Methods and Compositions for Treating or Preventing Cancer” (MERCK SHARP & DOHME CORP., priority 2005, published 2015).
